The source of these data is the NIST ThermoML archive (doi:10.1016/j.jct.2010.04.015).

Broadly, the vapor or sublimation pressure is the equilibrium pressure above the liquid or solid.

Numbers after ± are expanded uncertainties.

The conditions of the data set: Liquid, Closed cell (Static) method.

Regarding `CC(C)(N)CO` [2-amino-2-methylpropan-1-ol], the “vapor or sublimation pressure” value is 0.0415 ± 0.001 kPa (293.29 K); 0.0975 ± 0.0019 kPa (303.35 K); 0.2191 ± 0.0028 kPa (313.24 K); 0.4556 ± 0.0048 kPa (323.25 K); 0.8745 ± 0.0082 kPa (332.57 K); 1.659 ± 0.011 kPa (343.18 K). Moreover, the “vapor or sublimation pressure” value is 2.933 ± 0.014 kPa (353.17 K), 4.987 ± 0.019 kPa (363.1 K) and 8.142 ± 0.025 kPa (373 K).
As for `CN(C)CCCO` [3-dimethylamino-1-propanol], the “vapor or sublimation pressure” value (283.15 K) is recorded as 0.007 ± 0.0003 kPa; the “vapor or sublimation pressure” value (293.14 K) is reported as 0.016 ± 0.0006 kPa; the “vapor or sublimation pressure” value (303.09 K) worked out at 0.0346 ± 0.0009 kPa; the “vapor or sublimation pressure” value (313.08 K) was 0.0707 ± 0.0014 kPa; the “vapor or sublimation pressure” value (323.28 K) is reported as 0.1418 ± 0.0021 kPa; the “vapor or sublimation pressure” value (333.12 K) is given as 0.2604 ± 0.0031 kPa. Further, the “vapor or sublimation pressure” value is given as 0.4742 ± 0.005 kPa (343.12 K), 1.419 ± 0.01 kPa (363.17 K) and 2.315 ± 0.012 kPa (373.1 K).
